test system: U937 cell line (human histiocytic lymphoma cell line); assay: U937 cell viability assay (TNF-α + Z-VAD-FMK induced necroptosis); type: cell-based; settings: Homo sapiens, U-937; U937 cells, hTNF-α 0.1 μg/mL + Z-VAD-FMK 50 μM, 20 hours, CellTiter-Glo
Summary of the method: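 U937 cells (1.75×10^4/well, 1% FBS RPMI 1640) were preincubated 1 h with compound (0.0005–1.0 μM, 0.3% DMSO) and 50 μM Z-VAD-FMK, then stimulated with 0.1 μg/mL TNF-α for 20 h at 37 °C. Viability was read by CellTiter-Glo luminescence. Inhibition was normalised between TNF-α+Z-VAD and unstimulated wells, and IC50 was fitted.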

Row | SMILES | IC50
1 | CC(C)n1ncc2cnc(C(=O)NC3(c4ccc(-c5cncn(C6CCC6)c5=O)cc4)CC3)nc21 [Compound 42] | 7 nM
2 | CC[C@H](C)n1cncc(-c2ccc(C3(NC(=O)c4ncc5cnn(C(C)C)c5n4)CC3)cc2)c1=O [Compound 43] | 2 nM
3 | CC[C@@H](C)n1cncc(-c2ccc(C3(NC(=O)c4ncc5cnn(C(C)C)c5n4)CC3)cc2)c1=O [Compound 44] | 2 nM
4 | CC(C)Cn1cncc(-c2ccc(C3(NC(=O)c4ncc5cnn(C(C)C)c5n4)CC3)cc2)c1=O [Compound 45] | 2 nM
5 | Cn1cncc(-c2ccc(C3(NC(=O)c4nc5n(n4)[C@@H](c4ccccc4)CC5)CC3)cc2)c1=O [Compound 54, (R)—N-(1-(4-(1-methyl-6-oxo-1,6-dihydropyrimidin-5-yl)phenyl)cyclopropyl)-5-phenyl-6,7-dihydro-5H-pyrrolo[1,2-b][1,2,4]triazole-2-carboxamide] | 12 nM
6 | C[C@H](c1ccccc1)n1cnc(C(=O)NC2(c3ccc(-c4cncn(C)c4=O)cc3)CC2)n1 [Compound 55, (R)—N-(1-(4-(1-methyl-6-oxo-1,6-dihydropyrimidin-5-yl)phenyl)cyclopropyl)-1-(1-phenylethyl)-1H-1,2,4-triazole-3-carboxamide] | 7 nM
7 | CC(C)n1cncc(-c2ccc(C3(NC(=O)c4ncc5cnn(C6COC6)c5n4)CC3)cc2)c1=O [Compound 60] | 66 nM
8 | CC(C)n1cncc(-c2ccc(C3(NC(=O)c4ncc5cnn(CC6CC6)c5n4)CC3)cc2)c1=O [Compound 61] | 3 nM
9 | CC(C)n1cncc(-c2ccc(C3(NC(=O)c4ncc5cnn(CC6CCC6)c5n4)CC3)cc2)c1=O [Compound 62] | 2 nM
10 | CC(C)n1cncc(-c2ccc(C3(NC(=O)c4ncc5cnn(-c6ccccn6)c5n4)CC3)cc2)c1=O [Compound 63] | 51 nM
11 | O=C(NC1(c2ccc(-c3cncn(CC4CC4)c3=O)cc2)CC1)c1ncc2cnn(CC3CC3)c2n1 [Compound 64] | 2 nM
12 | CC(C)n1ncc2cnc(C(=O)NC3(c4ccc(-c5cncn(C6CC(F)(F)C6)c5=O)cc4)CC3)nc21 [Compound 65] | 7 nM
13 | CC(C)n1ncc2cnc(C(=O)NC3(c4ccc(-c5cncn(CC6CCC6)c5=O)cc4)CC3)nc21 [Compound 66] | 3 nM
14 | CC(C)n1ncc2cnc(C(=O)NC3(c4ccc(-c5cncn([C@H]6C[C@@H]6F)c5=O)cc4)CC3)nc21 [Compound 67] | 91 nM
15 | C[C@H](n1cncc(-c2ccc(C3(NC(=O)c4ncc5cnn(CC6CC6)c5n4)CC3)cc2)c1=O)C(F)(F)F [Compound 68] | 6 nM
16 | CC(C)n1ncc2cnc(C(=O)NC3(c4ccc(-c5cncn([C@@H]6C[C@@H]6F)c5=O)cc4)CC3)nc21 [Compound 69] | 9 nM
17 | C[C@@H](n1cncc(-c2ccc(C3(NC(=O)c4ncc5cnn(CC6CC6)c5n4)CC3)cc2)c1=O)C(F)(F)F [Compound 70] | 2 nM
18 | C[C@H](n1cncc(-c2ccc(C3(NC(=O)c4ncc5cnn(CC6CC6)c5n4)CC3)c(F)c2)c1=O)C(F)(F)F [Compound 71] | 3 nM
19 | CC(C)n1cncc(-c2ccc(C3(NC(=O)c4ncc5cnn(CC6CC6)c5n4)CC3)c(F)c2)c1=O [Compound 72] | 2 nM

Row | SMILES | IC50
20 | CC(C)n1cncc(-c2ccc(C3(NC(=O)c4ncc5cnn(CC6CC6)c5n4)CC3)cc2F)c1=O [Compound 73] | 2 nM
21 | CC(C)n1ncc2cnc(C(=O)NC3(c4ccc(-c5cncn(CC6CC6)c5=O)cc4F)CC3)nc21 [Compound 74] | 1 nM
22 | CC(C)n1ncc2cnc(C(=O)NC3(c4ccc(-c5cncn(CC6CC6)c5=O)c(F)c4)CC3)nc21 [Compound 75] | 2 nM
23 | C[C@@H](n1cncc(-c2ccc(C3(NC(=O)c4ncc5cnn(CC6CC6)c5n4)CC3)c(F)c2)c1=O)C(F)(F)F [Compound 76] | 3 nM
24 | CC(C)n1ncc2cnc(C(=O)NC3(c4ccc(-c5cncn(C6CCOCC6)c5=O)cc4)CC3)nc21 [Compound 77] | 10 nM
25 | CC(C)n1ncc2cnc(C(=O)NC3(c4ccc(-c5cncn(C6(C)CC6)c5=O)cc4)CC3)nc21 [Compound 78] | 8 nM
26 | CC(C)n1ncc2cnc(C(=O)NC3(c4ccc(-c5cncn(C6(C)CCC6)c5=O)cc4)CC3)nc21 [Compound 79] | 2 nM
27 | CC(C)n1ncc2cnc(C(=O)NC3(c4ccc(-c5cncn([C@H](C)C6CC6)c5=O)cc4)CC3)nc21 [Compound 84, (R)—N-(1-(4-(1-(1-cyclopropylethyl)-6-oxo-1,6-dihydropyrimidin-5-yl)phenyl)cyclopropyl)-1-i-propyl-1H-pyrazolo[3,4-d]pyrimidine-6-carboxamide] | 1 nM
28 | CC(C)n1ncc2cnc(C(=O)NC3(c4ccc(-c5cncn([C@@H](C)C6CC6)c5=O)cc4)CC3)nc21 [Compound 85, (S)—N-(1-(4-(1-(1-cyclopropylethyl)-6-oxo-1,6-dihydropyrimidin-5-yl)phenyl)cyclopropyl)-1-i-propyl-1H-pyrazolo[3,4-d]pyrimidine-6-carboxamide] | 2 nM
29 | CC(C)n1ncc2cnc(C(=O)NC3(c4ccc(-c5cncn(CC6(C)CC6)c5=O)cc4)CC3)nc21 [Compound 86] | 1 nM
30 | CC(C)n1ncc2cnc(C(=O)NC3(c4ccc(-c5cncn([C@H]6C[C@H](F)C6)c5=O)cc4)CC3)nc21 [Compound 87, N-(1-(4-(1-(trans-3-fluorocyclobutyl)-6-oxo-1,6-dihydropyrimidin-5-yl)phenyl)cyclopropyl)-1-i-propyl-1H-pyrazolo[3,4-d]pyrimidine-6-carboxamide] | 11 nM
31 | CC(C)n1cncc(-c2ccc(C3(NC(=O)c4ncc5cnn([C@H](C)C6CC6)c5n4)CC3)cc2)c1=O [Compound 89, (R)-1-(1-cyclopropylethyl)-N-(1-(4-(1-i-propyl-6-oxo-1,6-dihydropyrimidin-5-yl)phenyl)cyclopropyl)-1H-pyrazolo[3,4-d]pyrimidine-6-carboxamide] | 5 nM
32 | CC(C)n1cncc(-c2ccc(C3(NC(=O)c4ncc5cnn([C@@H](C)C6CC6)c5n4)CC3)cc2)c1=O [Compound 90, (S)-1-(1-cyclopropylethyl)-N-(1-(4-(1-i-propyl-6-oxo-1,6-dihydropyrimidin-5-yl)phenyl)cyclopropyl)-1H-pyrazolo[3,4-d]pyrimidine-6-carboxamide] | 4 nM
33 | CC(C)n1cncc(-c2ccc(C3(NC(=O)c4ncc5cnn(C(C)C)c5n4)CC3)c(F)c2Cl)c1=O [Compound 91] | 11 nM
34 | CC(C)n1cncc(-c2cc(F)c(C3(NC(=O)c4ncc5cnn(C(C)C)c5n4)CC3)c(F)c2)c1=O [Compound 92] | 100 nM
35 | CC(C)n1cncc(-c2ccc(C3(NC(=O)c4ncc5cnn(C(C)C)c5n4)CC3)c(F)c2F)c1=O [Compound 93] | 6 nM
36 | CC(C)n1ncc2cnc(C(=O)NC3(c4cc(F)c(-c5cncn(CC6CC6)c5=O)cc4F)CC3)nc21 [Compound 94] | 3 nM
37 | CC(C)n1ncc2cnc(C(=O)NC3(c4ccc(-c5cncn(CC6CC6)c5=O)c(F)c4F)CC3)nc21 [Compound 95] | 3 nM

same assay, conditions: U937 cells, hTNF-α 0.1 μg/mL + Z-VAD-FMK 50 μM, 20 hours, CellTiter-Glo

Row | SMILES | IC50
38 | CC(C)n1ncc2cnc(C(=O)NC3(c4ccc(-c5cncn([C@H]6C[C@@H](F)C6)c5=O)cc4)CC3)nc21 [Compound 88, N-(1-(4-(1-(cis-3-fluorocyclobutyl)-6-oxo-1,6-dihydropyrimidin-5-yl)phenyl)cyclopropyl)-1-i-propyl-1H-pyrazolo[3,4-d]pyrimidine-6-carboxamide] | 11 nM

Source: US20240002388A1, “PYRIMIDINONE COMPOUNDS AND USES THEREOF” (HUTCHISON MEDIPHARMA LIMITED, priority 2020, published 2024)
